Measured values reported in patent US8476295B2, “Bridged bicyclic RHO kinase inhibitor compounds, composition and use” (Inspire, priority 2009, dated 2013).
Read-outs that look alike come from different tables or passages of the source.

Tests used:
[1] = target: Rho kinase 1 (Homo sapiens (Human), UniProt Q13464); experiment: biochemical
[2] = target: Rho kinase 2 (Homo sapiens (Human), UniProt O75116); experiment: Rho Kinase Inhibition Assay (IMAP fluorescence polarization), Rho kinase 2; format: biochemical; details: isolated enzyme, 10 μM ATP, 60 minutes at room temperature
Chain of Rho kinase 2 (O75116 11-552): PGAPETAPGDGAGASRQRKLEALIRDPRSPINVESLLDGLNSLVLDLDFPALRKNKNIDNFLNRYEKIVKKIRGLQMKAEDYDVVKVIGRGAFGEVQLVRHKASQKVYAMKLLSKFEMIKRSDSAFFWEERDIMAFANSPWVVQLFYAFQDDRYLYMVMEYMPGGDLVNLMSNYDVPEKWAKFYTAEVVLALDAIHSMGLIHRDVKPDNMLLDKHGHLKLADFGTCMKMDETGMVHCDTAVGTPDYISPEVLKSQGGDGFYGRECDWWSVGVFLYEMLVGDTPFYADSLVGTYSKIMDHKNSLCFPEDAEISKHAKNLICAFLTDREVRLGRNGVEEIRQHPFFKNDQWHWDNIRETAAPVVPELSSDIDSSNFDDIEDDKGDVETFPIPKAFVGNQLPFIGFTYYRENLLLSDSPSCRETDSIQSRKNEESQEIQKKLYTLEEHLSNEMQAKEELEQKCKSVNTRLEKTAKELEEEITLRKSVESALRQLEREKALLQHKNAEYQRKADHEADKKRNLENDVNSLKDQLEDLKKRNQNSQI

[3] = Rho kinase 1 Ki, isolated enzyme, 10 μM ATP, 60 minutes at room temperature

Chain of Rho kinase 1 (Q13464 17-535): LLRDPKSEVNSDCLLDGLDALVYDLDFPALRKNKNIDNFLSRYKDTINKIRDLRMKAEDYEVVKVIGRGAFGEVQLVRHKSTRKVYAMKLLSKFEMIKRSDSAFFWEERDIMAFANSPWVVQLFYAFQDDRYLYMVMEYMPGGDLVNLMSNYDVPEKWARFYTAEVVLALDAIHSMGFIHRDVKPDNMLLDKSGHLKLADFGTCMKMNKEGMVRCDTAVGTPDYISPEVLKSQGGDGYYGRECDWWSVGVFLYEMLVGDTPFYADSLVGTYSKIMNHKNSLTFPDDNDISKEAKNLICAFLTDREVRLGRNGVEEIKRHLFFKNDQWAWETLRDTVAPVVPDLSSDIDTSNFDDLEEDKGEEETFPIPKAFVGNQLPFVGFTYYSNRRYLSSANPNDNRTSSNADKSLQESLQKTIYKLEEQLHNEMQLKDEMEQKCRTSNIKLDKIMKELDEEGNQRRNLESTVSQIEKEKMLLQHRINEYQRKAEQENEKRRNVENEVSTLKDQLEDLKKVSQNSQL

| Ki [1] | Ki ([2]; read-out: Rho kinase 2 Ki) | Compound | Ki [1, 3] | Ki ([2]; Rho kinase 2 Ki) |
| --- | --- | --- | --- | --- |
|  |  | Cc1ccc(CN2C3CCC2CC(Nc2ccc4[nH]ncc4c2)C3)cc1 (stereo not drawn) [Compound 1.1.02, N-((1RS,3rs,5SR)-8-(4-methylbenzyl)-8-azabicyclo[3.2.1]octan-3-yl)-1H-indazol-5-amine] | 91 nM | 20 nM |
|  |  | c1ccc(CN2C3CCC2CC(Nc2ccc4[nH]ncc4c2)C3)cc1 (single isomer, unassigned) [Compound 1.1.01, N-((1RS,3rs,5SR)-8-benzyl-8-azabicyclo[3.2.1]octan-3-yl)-1H-indazol-5-amine] | 72 nM | 29 nM |
|  |  | Cc1ccc(CN2C3CCC2CC(Nc2ccc4[nH]ncc4c2)C3)cc1OCCO (stereo not drawn) [Compound 1.1.04, 2-(5-(((1RS,3rs,5SR)-3-((1H-indazol-5-yl)amino)-8-azabicyclo[3.2.1]octan-8-yl)methyl)-2-methylphenoxy)ethanol] | 35 nM | 10 nM |
| 976 nM | 464 nM | c1ccc(CN2C[C@@H]3CC[C@H]2[C@@H]3Nc2ccc3[nH]ncc3c2)cc1 (racemic) [Compound 3.1.01, N-((1SR,4SR,7RS)-2-benzyl-2-azabicyclo[2.2.1]heptan-7-yl)-1H-indazol-5-amine] |  |  |
|  |  | OCCOc1cccc(CN2C3CCC2CC(Nc2ccc4[nH]ncc4c2)C3)c1 (stereo not drawn) [Compound 1.1.03, 2-(3-(((1RS,3rs,5SR)-3-((1H-indazol-5-yl)amino)-8-azabicyclo[3.2.1]octan-8-yl)methyl)phenoxy)ethanol] |  | 21 nM |
|  |  | c1ccc(CN2C3CCC2CC(Nc2ccc4[nH]ncc4c2)C3)cc1 (single isomer, unassigned) [Compound 2.1.01, N-((1RS,3sr,5SR)-8-benzyl-8-azabicyclo[3.2.1]octan-3-yl)-1H-indazol-5-amine] | 806 nM | 220 nM |
